US4361515A, “Antihyperlipemic dihydro-ML-236B derivatives, their preparation and use” (Sankyo Company, Limited, priority 1980, dated 1982)

Columns and labels:
[1] = system: synthesis of cholesterol in a rat liver; experiment: Inhibitory activity against the biosynthesis of cholesterol in a rat liver; format: biochemical
Procedure: 10. Inhibitory activity against the biosynthesis of cholesterol: a 50% inhibition of the synthesis of cholesterol in a rat liver is observed at a concentration of 0.04 μg/ml.

[2] = Solubility in organic solvents; format: physicochemical
[3] = Toxicity in mice, intraperitoneal administration; conditions: mouse, in vivo, ip, read-out: dose at which mice survive

In the case of CC1C=C2C=CC(C)C(CCC3CC(O)CC(=O)O3)C2C(O)C1 (centres unmarked) [MB-530A], the “concentration at which a 50% inhibition of the synthesis of cholesterol is observed” value [1] is reported as 0.04 µg/mL, the Solubility ([2]; benzene) is reported as “soluble” and the Solubility ([2]; hexane and petroleum ether) is reported as “insoluble”. The Solubility ([2]; methanol, ethanol, acetone, ethyl acetate, chloroform and carbon tetrachloride) was “readily soluble”.

Compound CCC(C)C(=O)OC1CCC(O)C2=CC(O)C(C)C(CCC3CC(O)CC(=O)O3)C21 (centres unmarked) [3',5'-dihydroxy-(DH.ML-236B), 3',5'-Dihydroxy-(DH.ML-236B)] has an MTD [3] of at most 1 mg/kg.
